From patent US11440913B2, “Aminoimidazopyridazines as kinase inhibitors” (BRISTOL-MYERS SQUIBB COMPANY, priority 2017, dated 2022) come the findings set out here.

Molecules are shown by their SMILES. Where a name gives a salt, the structure may show the parent alone. Read-outs that look alike come from different tables or passages of the source.

Experiment [1] has as its target His-GST-TVMV-hRIPK1(1-324) (Homo sapiens (Human), UniProt Q13546). Kind of experiment: RIPK1 HTRF Binding Assay. The note with it: HTRF binding, 1 h at rt; read-out: RIPK1 (IC50). Put shortly:
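HTRF probe-displacement binding: 1 nM His-GST-TVMV-hRIPK1(1-324) (baculovirus construct), 90.6 nM probe, 0.2 nM anti-GST-Tb in 20 mM HEPES, 10 mM MgCl2, 0.015% Brij-35, 4 mM DTT, 0.05 mg/mL BSA. Incubated 1 h at rt; FRET 520/495 nm ratio, inhibition relative to DMSO-only wells.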

The test system of experiment [2] is MLKL phosphorylation in HT29-L23 human colorectal adenocarcinoma cells. Description: MLKL Phosphorylation High-Content Assay. The class given is cell-based. Particulars: necroptosis induced with TNFα, SMAC mimetic and Z-VAD, 6 h, read-out: pMLKL (IC50). Put shortly: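 HT29-L23 cells pretreated 30 min at 37 °C with compound (6.25 to 0.106 μM final), then necroptosis induced with TNFα 35 ng/mL, SMAC mimetic 700 nM and Z-VAD 140 nM for 6 h. Fixed cells immunostained for MLKL pS358 and imaged; IC50 and Ymax from 4-parameter logistic fit.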

Chain of His-GST-TVMV-hRIPK1(1-324) (Q13546 1-324): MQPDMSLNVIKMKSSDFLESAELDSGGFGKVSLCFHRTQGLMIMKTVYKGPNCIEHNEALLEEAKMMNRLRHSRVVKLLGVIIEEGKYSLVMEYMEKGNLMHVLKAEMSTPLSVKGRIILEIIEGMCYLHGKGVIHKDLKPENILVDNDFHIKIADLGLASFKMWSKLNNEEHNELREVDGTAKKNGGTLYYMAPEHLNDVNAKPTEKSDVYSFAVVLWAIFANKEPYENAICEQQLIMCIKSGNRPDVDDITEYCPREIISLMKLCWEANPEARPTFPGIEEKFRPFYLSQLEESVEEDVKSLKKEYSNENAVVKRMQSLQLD

In the case of `COc1ncc(-c2ccc3nc(NC(C)=O)cn3n2)cc1C(=O)NCc1cccc(F)c1OCC1CC1` [Example 151, N-{[2-(cyclopropylmethoxy)-3-fluorophenyl]methyl}-5-{2-acetamidoimidazo[1,2-b]pyridazin-6-yl}-2-methoxypyridine-3-carboxamide, TFA], the concentration for half-maximal inhibition (IC50) was determined as 8 nM in experiment [1] and 6 nM in experiment [2].

As for `COc1ncc(-c2ccc3nc(NC(C)=O)cn3n2)cc1C(=O)NCc1ccc(F)cc1OC1CCOCC1` [Example 152, 5-{2-acetamidoimidazo[1,2-b]pyridazin-6-yl}-N-{[4-fluoro-2-(oxan-4-yloxy)phenyl]methyl}-2-methoxypyridine-3-carboxamide], the half-inhibitory concentration (IC50) in experiment [1] came to 49 nM; in experiment [2] (Homo sapiens), 69 nM.

On to `[2H]C([2H])(NC(=O)c1cc(-c2ccc3nc(NC(C)=O)cn3n2)cnc1OC)c1cc(F)cc(F)c1OC1CCOCC1` [Example 153, 5-(2-acetamidoimidazo[1,2-b]pyridazin-6-yl)-N-((3,5-difluoro-2-((tetrahydro-2H-pyran-4-yl)oxy)phenyl)methyl-d2)-2-methoxynicotinamide], for which the IC50 in experiment [1] and in experiment [2] (Homo sapiens) was 1 nM throughout.

In the case of `COc1ncc(-c2ccc3nc(NC(C)=O)cn3n2)cc1C(=O)NCc1cc(OC(F)(F)F)ccc1F` [Example 154, 5-{2-acetamidoimidazo[1,2-b]pyridazin-6-yl}-N-{[2-fluoro-5-(trifluoromethoxy)phenyl]methyl}-2-methoxypyridine-3-carboxamide], the values for the IC50 in experiment [1] and in experiment [2] (Homo sapiens) were 13 nM and 15 nM, respectively.

Consider `COc1ncc(-c2ccc3nc(NC(C)=O)cn3n2)cc1C(=O)NCc1ccccc1OCC1CCC1` [Example 155, N-{[2-(cyclobutylmethoxy)phenyl]methyl}-5-{2-acetamidoimidazo[1,2-b]pyridazin-6-yl}-2-methoxypyridine-3-carboxamide], for which the half-inhibitory concentration (IC50) in experiment [1] was determined as 2 nM; in experiment [2] (Homo sapiens) it was 6 nM.

With `COc1ncc(-c2ccc3nc(NC(C)=O)cn3n2)cc1C(=O)NCc1c(F)cccc1OC1CCCC1` [Example 156, N-{[2-(cyclopentyloxy)-6-fluorophenyl]methyl}-5-{2-acetamidoimidazo[1,2-b]pyridazin-6-yl}-2-methoxypyridine-3-carboxamide], the values for the IC50 in experiment [1] and in experiment [2] (Homo sapiens) were 2 nM and 3 nM, respectively.

As for `COc1ncc(-c2ccc3nc(NC(C)=O)cn3n2)cc1C(=O)NCc1ccccc1OC(F)(F)F` [Example 157, 5-{2-acetamidoimidazo[1,2-b]pyridazin-6-yl}-2-methoxy-N-{[2-(trifluoro-methoxy)phenyl]methyl}pyridine-3-carboxamide], the values for the IC50 in experiment [1] and in experiment [2] (Homo sapiens) were 17 nM and 93 nM, respectively.

As to `COc1ncc(-c2ccc3nc(NC(C)=O)cn3n2)cc1C(=O)NCc1ccccc1S(=O)(=O)C1CC1` [Example 158, N-{[2-(cyclopropanesulfonyl)phenyl]methyl}-5-{2-acetamidoimidazo[1,2-b]pyridazin-6-yl}-2-methoxypyridine-3-carboxamide], the 50% inhibitory concentration (IC50) amounted to 31 nM in experiment [1] and 336 nM in experiment [2] (Homo sapiens).

Turning to `COc1ncc(-c2ccc3nc(NC(C)=O)cn3n2)cc1C(=O)NCc1ccccc1OC1CCCC1` [Example 159, N-{[2-(cyclopentyloxy)phenyl]methyl}-5-{2-acetamidoimidazo[1,2-b]pyridazin-6-yl}-2-methoxypyridine-3-carboxamide], the IC50 in experiment [1] turned out to be 3 nM; in experiment [2] (Homo sapiens), 6 nM.

Take `COc1ncc(-c2ccc3nc(NC(C)=O)cn3n2)cc1C(=O)NCc1ccccc1-n1cccc1` [Example 160, 5-{2-acetamidoimidazo[1,2-b]pyridazin-6-yl}-2-methoxy-N-{[2-(1H-pyrrol-1-yl)phenyl]methyl}pyridine-3-carboxamide]: the concentration for half-maximal inhibition (IC50) amounted to 489 nM in experiment [1] and 331 nM in experiment [2] (Homo sapiens).

Consider `COc1ncc(-c2ccc3nc(NC(C)=O)cn3n2)cc1C(=O)NC[C@H]1C[C@@H]1c1ccc(F)cc1` [Example 161, 5-{2-acetamidoimidazo[1,2-b]pyridazin-6-yl}-N-{[(1S,2S)-2-(4-fluorophenyl)cyclopropyl]methyl}-2-methoxypyridine-3-carboxamide], for which the figures for the IC50 in experiment [1] and in experiment [2] (Homo sapiens) were 145 nM and 311 nM, respectively.

As to `COc1ncc(-c2ccc3nc(NC(C)=O)cn3n2)cc1C(=O)NCc1ccccc1N1CCOCC1` [Example 162, 5-{2-acetamidoimidazo[1,2-b]pyridazin-6-yl}-2-methoxy-N-{[2-(morpholin-4-yl)phenyl]methyl}pyridine-3-carboxamide], the IC50 in experiment [1] came to 64 nM; in experiment [2] (Homo sapiens), 140 nM.

As for `COc1ncc(-c2ccc3nc(NC(C)=O)cn3n2)cc1C(=O)NCc1ncccc1OC1CCCC1` [Example 163, N-{[3-(cyclopentyloxy)pyridin-2-yl]methyl}-5-{2-acetamidoimidazo[1,2-b]pyridazin-6-yl}-2-methoxypyridine-3-carboxamide], the half-maximal inhibitory concentration (IC50) worked out at 12 nM in experiment [1] and 17 nM in experiment [2] (Homo sapiens).

Take `COc1ncc(-c2ccc3nc(NC(C)=O)cn3n2)cc1C(=O)NCc1ccccc1OCC1CCCC1` [Example 164, N-{[2-(cyclopentylmethoxy)phenyl]methyl}-5-{2-acetamidoimidazo[1,2-b]pyridazin-6-yl}-2-methoxypyridine-3-carboxamide]: the half-maximal inhibitory concentration (IC50) came out at 10 nM in experiment [1] and 32 nM in experiment [2] (Homo sapiens).

As to `COc1ncc(-c2ccc3nc(NC(C)=O)cn3n2)cc1C(=O)NCc1ccccc1OC(C)C` [Example 165, 5-{2-acetamidoimidazo[1,2-b]pyridazin-6-yl}-2-methoxy-N-{[2-(propan-2-yloxy)phenyl]methyl}pyridine-3-carboxamide], the IC50 in experiment [1] was 4 nM; in experiment [2] (Homo sapiens), 11 nM.

In the case of `COc1ncc(-c2ccc3nc(NC(C)=O)cn3n2)cc1C(=O)NCc1cc(F)ccc1OC1CCCC1` [Example 166, N-{[2-(cyclopentyloxy)-5-fluorophenyl]methyl}-5-{2-acetamidoimidazo[1,2-b]pyridazin-6-yl}-2-methoxypyridine-3-carboxamide], the half-maximal inhibitory concentration (IC50) was 4 nM in experiment [1] and 1 nM in experiment [2] (Homo sapiens).

For `[2H]C([2H])([2H])Oc1nc(C)c(-c2ccc3nc(NC(C)=O)cn3n2)cc1C(=O)NCc1cc(F)cc(F)c1OC1CC(C)OC(C)C1` (stereo not shown) [Example 167, N-({2-[(2,6-dimethyloxan-4-yl)oxy]-3,5-difluorophenyl}methyl)-5-{2-acetamidoimidazo[1,2-b]pyridazin-6-yl}-2-(deutero)methoxy-6-methylpyridine-3-carboxamide], the IC50 in experiment [1] was determined as 18 nM; in experiment [2] (Homo sapiens), 13 nM.

With `[2H]C([2H])([2H])Oc1nc(C)c(-c2ccc3nc(NC(C)=O)cn3n2)cc1C(=O)NCc1cccc(F)c1OC1C[C@@H](C)O[C@@H](C)C1` (stereo partly drawn) [Example 168, N-[(2-{[(2R,6S)-2,6-dimethyloxan-4-yl]oxy}-3-fluorophenyl)methyl]-5-{2-acetamidoimidazo[1,2-b]pyridazin-6-yl}-2-(deutero)methoxy-6-methylpyridine-3-carboxamide], the results for the IC50 in experiment [1] and in experiment [2] (Homo sapiens) were 21 nM and 67 nM, respectively.

`[2H]C([2H])([2H])Oc1nc(C)c(-c2ccc3nc(NC(C)=O)cn3n2)cc1C(=O)NCc1cc(F)cc(F)c1O[C@@H]1CCOC1` [Example 169, N-({3,5-difluoro-2-[(3R)-oxolan-3-yloxy]phenyl}methyl)-5-{2-acetamidoimidazo[1,2-b]pyridazin-6-yl}-2-(deutero)methoxy-6-methylpyridine-3-carboxamide]: the IC50 in experiment [1] is 3 nM; in experiment [2] (Homo sapiens), 10 nM.

Regarding `[2H]C([2H])([2H])Oc1nc(C)c(-c2ccc3nc(NC(C)=O)cn3n2)cc1C(=O)NCc1cc(F)cc(F)c1O[C@H]1CCOC1` [Example 171, N-({3,5-difluoro-2-[(3S)-oxolan-3-yloxy]phenyl}methyl)-5-{2-acetamidoimidazo[1,2-b]pyridazin-6-yl}-2-(deutero)methoxy-6-methylpyridine-3-carboxamide], the 50% inhibitory concentration (IC50) in experiment [1] and in experiment [2] (Homo sapiens) was 3 nM throughout.

For `[2H]C([2H])([2H])Oc1nc(C)c(-c2ccc3nc(NC(C)=O)cn3n2)cc1C(=O)NCc1cc(F)cc(F)c1OC1CCOC(C)C1` (stereo not shown) [Example 172, N-({3,5-difluoro-2-[(2-methyloxan-4-yl)oxy]phenyl}methyl)-5-{2-acetamidoimidazo[1,2-b]pyridazin-6-yl}-2-(deutero)methoxy-6-methylpyridine-3-carboxamide], the IC50 in experiment [1] worked out at 15 nM; in experiment [2] (Homo sapiens), 16 nM.

For the compound `[2H]C([2H])([2H])Oc1nc(C)c(-c2ccc3nc(NC(C)=O)cn3n2)cc1C(=O)NCc1c(F)cccc1OCC(F)(F)F` [Example 173, 5-{2-acetemidoimidazo[1,2-b]pyridazin-6-yl}-N-{[2-fluoro-6-(2,2,2-trifluoroethoxy)phenyl]methyl}-2-(deutero)methoxy-6-methylpyridine-3-carboxamide], the half-inhibitory concentration (IC50) stood at 3 nM in experiment [1] and 2 nM in experiment [2] (Homo sapiens).

For `[2H]C([2H])([2H])Oc1nc(C)c(-c2ccc3nc(NC(C)=O)cn3n2)cc1C(=O)NCc1cc(F)cc(F)c1OC([2H])([2H])C1CC1` [Example 174, N-({2-[cyclopropyl(deutero)methoxy]-3,5-difluorophenyl}methyl)-5-{2-acetamidoimidazo[1,2-b]pyridazin-6-yl}-2-(deutero)methoxy-6-methylpyridine-3-carboxamide], the results for the IC50 in experiment [1] and in experiment [2] (Homo sapiens) were 3 nM and 1 nM, respectively.
